13 molecules from PubChem BioAssay AID220 (DTP/NCI, 2004) can be followed below.

The assay concerns CD8F1 mice, subcutaneous mammary adenocarcinoma, T/C%. Kind of assay: NCI In Vivo Anticancer Drug Screen. Data for tumor model Mammary Adenocarcinoma CD8F1 (subcutaneous) in CD8F1. Conditions: higher = larger tumour. Summed up: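 Tumor-bearing mice, transplantable model; readout survival or tumor size; value = treated (T) / vehicle control (C).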

Several values for one entry are separate records, joined by “and”; a condition that tells them apart may be missing. Identical values can stand only once. Results filed as inconclusive are left out.

Turning to `ClC1=C(Cl)C(Cl)=C(Cl)C1=Cc1ccccc1`, the T/C is, setting by setting: (endpoint: median tumor weight change, dose: 31.0 mg/kg/injection, schedule: Q01DX001 (ip), vehicle: saline with Tween-80) 100 % of control; (endpoint: median tumor weight change, dose: 62.0 mg/kg/injection, schedule: Q01DX001 (ip), vehicle: saline with Tween-80) 63 % of control; (endpoint: median tumor weight change, dose: 150.0 mg/kg/injection, schedule: Q01DX001 (ip), vehicle: saline with Tween-80) 33 % of control; (endpoint: median tumor weight change, dose: 300.0 mg/kg/injection, schedule: Q01DX001 (ip), vehicle: saline with Tween-80) 73 % of control.

For `O=c1ncccn1[C@@H]1O[C@H](CO)[C@H](O)C1O` (stereo partly specified), the T/C is 78 % of control and 89 % of control (endpoint: median tumor weight change, dose: 1000.0 mg/kg/injection, schedule: Q01DX001 (ip), vehicle: saline); 95 % of control and 103 % of control (endpoint: median tumor weight change, dose: 2000.0 mg/kg/injection, schedule: Q01DX001 (ip), vehicle: saline).

For `Cc1[nH]c(=O)[nH]c(=O)c1N(CCF)CCCl`, the T/C (endpoint: median tumor weight (est.), dose: 2.5 mg/kg/injection, schedule: Q07DX005 (ip), vehicle: Klucel (hydroxypropylcellulose) (HPC)) was 113 % of control; the T/C (endpoint: median tumor weight (est.), dose: 5.0 mg/kg/injection, schedule: Q07DX005 (ip), vehicle: Klucel (hydroxypropylcellulose) (HPC)) was 97 % of control; the T/C (endpoint: median tumor weight (est.), dose: 10.0 mg/kg/injection, schedule: Q07DX005 (ip), vehicle: Klucel (hydroxypropylcellulose) (HPC)) was 79 % of control; the T/C (endpoint: median tumor weight (est.), dose: 20.0 mg/kg/injection, schedule: Q07DX005 (ip), vehicle: Klucel (hydroxypropylcellulose) (HPC)) is 63 % of control; the T/C (endpoint: median tumor weight change, dose: 100.0 mg/kg/injection, schedule: Q01DX001 (ip), vehicle: Klucel (hydroxypropylcellulose) (HPC)) was 68 % of control.

For the molecule `O=C(O)c1ccc(C(=O)O)c(C(=O)O)c1.[NH-]C1CCCCC1[NH-].[Pt+2]`, the T/C runs as follows: (endpoint: median tumor weight (est.), dose: 1.56 mg/kg/injection, schedule: Q07DX005 (ip), vehicle: sodium bicarbonate) 38 % of control; (endpoint: median tumor weight (est.), dose: 3.12 mg/kg/injection, schedule: Q07DX005 (ip), vehicle: sodium bicarbonate) 24 % of control; (endpoint: median tumor weight (est.), dose: 6.25 mg/kg/injection, schedule: Q07DX005 (ip), vehicle: sodium bicarbonate) 11 % of control; (endpoint: median tumor weight (est.), dose: 12.5 mg/kg/injection, schedule: Q07DX005 (ip), vehicle: sodium bicarbonate) 11 % of control; (endpoint: median tumor weight (est.), dose: 25.0 mg/kg/injection, schedule: Q07DX005 (ip), vehicle: sodium bicarbonate) 32 % of control.

Consider `CCCCCC#CC1OC12CCCCC2` (stereo unspecified), for which the T/C runs as follows: (endpoint: median tumor weight change, dose: 100.0 mg/kg/injection, schedule: Q01DX001 (ip), vehicle: saline with Tween-80) 37 % of control; (endpoint: median tumor weight change, dose: 200.0 mg/kg/injection, schedule: Q01DX001 (ip), vehicle: saline with Tween-80) 106 % of control; (endpoint: median tumor weight change, dose: 400.0 mg/kg/injection, schedule: Q01DX001 (ip), vehicle: saline with Tween-80) 51 % of control; (endpoint: median tumor weight change, dose: 800.0 mg/kg/injection, schedule: Q01DX001 (ip), vehicle: saline with Tween-80) 100 % of control.

On to `C=C(C)[C@H]1Cc2c(ccc3c2O[C@@H]2COc4cc(OC)c(OC)cc4[C@@H]2C3=O)O1`, for which the T/C (endpoint: median tumor weight (est.), dose: 4.0 mg/kg/injection, schedule: Q07DX005 (ip), vehicle: saline) is 95 % of control; the T/C (endpoint: median tumor weight (est.), dose: 8.0 mg/kg/injection, schedule: Q07DX005 (ip), vehicle: saline) was 85 % of control; the T/C (endpoint: median tumor weight (est.), dose: 16.0 mg/kg/injection, schedule: Q07DX005 (ip), vehicle: saline) is 102 % of control; the T/C (endpoint: median tumor weight (est.), dose: 32.0 mg/kg/injection, schedule: Q07DX005 (ip), vehicle: saline) is 95 % of control.

Consider `C1OC1CN1CCN(CC2CO2)CC1` (stereo unspecified), for which the T/C by setting is: (endpoint: median tumor weight (est.), dose: 3.12 mg/kg/injection, schedule: Q07DX005 (ip), vehicle: saline) 72 % of control and 80 % of control; (endpoint: median tumor weight (est.), dose: 12.5 mg/kg/injection, schedule: Q07DX005 (ip), vehicle: saline) 24 % of control and 38 % of control; (endpoint: median tumor weight (est.), dose: 25.0 mg/kg/injection, schedule: Q07DX005 (ip), vehicle: saline) 24 % of control and 28 % of control; (endpoint: median tumor weight (est.), dose: 50.0 mg/kg/injection, schedule: Q07DX005 (ip), vehicle: saline) 1 % of control and 4 % of control.

For `CNC(=O)c1cccc2c(Nc3ccc(NS(C)(=O)=O)cc3OC)c3cccc(C)c3nc12`, the T/C was 6 % of control (endpoint: median tumor weight change, dose: 60.0 mg/kg/injection, schedule: Q01DX001 (ip), vehicle: water); -63 % of control (endpoint: median tumor weight change, dose: 62.5 mg/kg/injection, schedule: Q01DX001 (ip), vehicle: water); -68 % of control (endpoint: median tumor weight change, dose: 120.0 mg/kg/injection, schedule: Q01DX001 (ip), vehicle: other).

With `CO[C@@]12[C@H](COC(N)=O)C3=C(C(=O)C(C)=C(N)C3=O)N1C[C@@H]1N[C@@H]12`, the T/C (endpoint: median tumor weight (est.), dose: 0.37 mg/kg/injection, schedule: Q07DX006 (ip), vehicle: saline) is 63 % of control; the T/C (endpoint: median tumor weight (est.), dose: 0.75 mg/kg/injection, schedule: Q07DX006 (ip), vehicle: saline) was 47 % of control; the T/C (endpoint: median tumor weight (est.), dose: 1.5 mg/kg/injection, schedule: Q07DX006 (ip), vehicle: saline) was 27 % of control.

In the case of `CCc1c(CC(=O)O)c2cc(C)ccc2n1Cc1ccc(Cl)cc1`, the T/C is, setting by setting: (endpoint: median tumor weight change, dose: 125.0 mg/kg/injection, schedule: Q01DX001 (ip), vehicle: Klucel (hydroxypropylcellulose) (HPC)) 89 % of control; (endpoint: median tumor weight change, dose: 250.0 mg/kg/injection, schedule: Q01DX001 (ip), vehicle: Klucel (hydroxypropylcellulose) (HPC)) 101 % of control.

Consider `C=Cc1cnc([N+](=O)[O-])n1C`, for which the T/C by setting is: (endpoint: median tumor weight (est.), dose: 12.5 mg/kg/injection, schedule: Q07DX005 (ip), vehicle: Klucel (hydroxypropylcellulose) (HPC)) 122 % of control; (endpoint: median tumor weight (est.), dose: 25.0 mg/kg/injection, schedule: Q07DX005 (ip), vehicle: Klucel (hydroxypropylcellulose) (HPC)) 92 % of control; (endpoint: median tumor weight (est.), dose: 100.0 mg/kg/injection, schedule: Q07DX005 (ip), vehicle: Klucel (hydroxypropylcellulose) (HPC)) 42 % of control; (endpoint: median tumor weight (est.), dose: 200.0 mg/kg/injection, schedule: Q07DX005 (ip), vehicle: Klucel (hydroxypropylcellulose) (HPC)) 30 % of control.

Consider `CN(Cc1cnc2nc(N)nc(N)c2n1)c1ccc(C(=O)N[C@@H](CCC(=O)O)C(=O)O)cc1`, for which the T/C reads like this: (endpoint: mean tumor weight (est.), dose: 20.0 mg/kg/injection, schedule: Q07DX006 (ip), vehicle: sodium bicarbonate) 192 % of control; (endpoint: mean tumor weight (est.), dose: 75.0 mg/kg/injection, schedule: Q07DX004 (ip), vehicle: sodium bicarbonate) 91 % of control; (endpoint: mean tumor weight (est.), dose: 100.0 mg/kg/injection, schedule: Q07DX004 (ip), vehicle: sodium bicarbonate) 90 % of control; (endpoint: mean tumor weight, dose: 2.0 mg/kg/injection, schedule: Q01DX009 (ip), vehicle: saline) 84 % of control; (endpoint: mean tumor weight, dose: 2.0 mg/kg/injection, schedule: Q01DX009 (ip), vehicle: sodium bicarbonate) 234 % of control; (endpoint: mean tumor weight, dose: 4.0 mg/kg/injection, schedule: Q01DX009 (ip), vehicle: saline) 44 % of control. Further, the T/C by setting is: (endpoint: mean tumor weight, dose: 4.0 mg/kg/injection, schedule: Q01DX009 (ip), vehicle: sodium bicarbonate) 84 % of control; (endpoint: mean tumor weight, dose: 12.5 mg/kg/injection, schedule: Q07DX004 (ip), vehicle: saline) 87 % of control; (endpoint: mean tumor weight, dose: 25.0 mg/kg/injection, schedule: Q07DX004 (ip), vehicle: saline) 23 % of control; (endpoint: mean tumor weight, dose: 25.0 mg/kg/injection, schedule: Q07DX006 (ip), vehicle: saline) 44 % of control; (endpoint: mean tumor weight, dose: 50.0 mg/kg/injection, schedule: Q07DX003 (ip), vehicle: sodium bicarbonate) 50 % of control; (endpoint: mean tumor weight, dose: 50.0 mg/kg/injection, schedule: Q07DX004 (ip), vehicle: saline) 26 % of control. Moreover, the T/C runs as follows: (endpoint: mean tumor weight, dose: 50.0 mg/kg/injection, schedule: Q07DX006 (ip), vehicle: saline) 93 % of control; (endpoint: mean tumor weight, dose: 100.0 mg/kg/injection, schedule: Q07DX003 (ip), vehicle: sodium bicarbonate) 43 % of control; (endpoint: mean tumor weight, dose: 100.0 mg/kg/injection, schedule: Q07DX006 (ip), vehicle: saline) 56 % of control; (endpoint: mean tumor weight, dose: 150.0 mg/kg/injection, schedule: Q07DX005 (ip), vehicle: sodium bicarbonate) 107 % of control; (endpoint: mean tumor weight, dose: 200.0 mg/kg/injection, schedule: Q07DX005 (ip), vehicle: sodium bicarbonate) 70 % of control; (endpoint: mean tumor weight, dose: 250.0 mg/kg/injection, schedule: Q07DX005 (ip), vehicle: sodium bicarbonate) 45 % of control. The T/C runs as follows: (endpoint: median tumor weight (est.), dose: 2.5 mg/kg/injection, schedule: Q07DX005 (ip), vehicle: sodium bicarbonate) 63 % of control; (endpoint: median tumor weight (est.), dose: 5.0 mg/kg/injection, schedule: Q07DX005 (ip), vehicle: sodium bicarbonate) 110 % of control and 111 % of control; (endpoint: median tumor weight (est.), dose: 20.0 mg/kg/injection, schedule: Q07DX005 (ip), vehicle: sodium bicarbonate) 112 % of control; (endpoint: median tumor weight (est.), dose: 40.0 mg/kg/injection, schedule: Q07DX005 (ip), vehicle: sodium bicarbonate) 85 % of control and 107 % of control; (endpoint: median tumor weight (est.), dose: 80.0 mg/kg/injection, schedule: Q07DX005 (ip), vehicle: sodium bicarbonate) 20 % of control.

For the molecule `CCCCCCCCCCCCN1C(C)=CS/C1=C\C=C\c1scc(C)[n+]1CCCCCCCCCCCC`, the T/C by setting is: (endpoint: median tumor weight change, dose: 7.82 mg/kg/injection, schedule: Q01DX001 (ip), vehicle: saline with Tween-80) 80 % of control; (endpoint: median tumor weight change, dose: 15.63 mg/kg/injection, schedule: Q01DX001 (ip), vehicle: saline with Tween-80) 92 % of control; (endpoint: median tumor weight change, dose: 31.25 mg/kg/injection, schedule: Q01DX001 (ip), vehicle: saline with Tween-80) 65 % of control.
